From patent EP0293500A1, “3-heteroalkyl-2,4.quinzaoline-diones” (AMERICAN CYANAMID COMPANY, priority 1987, dated 1988)
Counter-ions that a name gives are not always drawn.

What was measured:
thromboxane synthetase = biological target: T1, thromboxane synthetase (Rattus norvegicus, UniProt P49430); assay: Inhibition of thromboxane (TX) formation (TXB2 radioimmunoassay) in washed rat platelets; type: cell-based, Okamoto-Aoki spontaneously hypertensive rats (SHR); conditions: percent inhibition of TXB2 formation; drug at 10^-4M; SHR platelet suspension, 10 minutes at 37 C
T1 construct: The platelets were isolated by centrifuging the PRP for 10 minutes at 1060xg; from tissue; host or cells: washed blood platelets from Okamoto-Aoki spontaneously hypertensive rats (SHR)
T1 sequence (P49430 1-533): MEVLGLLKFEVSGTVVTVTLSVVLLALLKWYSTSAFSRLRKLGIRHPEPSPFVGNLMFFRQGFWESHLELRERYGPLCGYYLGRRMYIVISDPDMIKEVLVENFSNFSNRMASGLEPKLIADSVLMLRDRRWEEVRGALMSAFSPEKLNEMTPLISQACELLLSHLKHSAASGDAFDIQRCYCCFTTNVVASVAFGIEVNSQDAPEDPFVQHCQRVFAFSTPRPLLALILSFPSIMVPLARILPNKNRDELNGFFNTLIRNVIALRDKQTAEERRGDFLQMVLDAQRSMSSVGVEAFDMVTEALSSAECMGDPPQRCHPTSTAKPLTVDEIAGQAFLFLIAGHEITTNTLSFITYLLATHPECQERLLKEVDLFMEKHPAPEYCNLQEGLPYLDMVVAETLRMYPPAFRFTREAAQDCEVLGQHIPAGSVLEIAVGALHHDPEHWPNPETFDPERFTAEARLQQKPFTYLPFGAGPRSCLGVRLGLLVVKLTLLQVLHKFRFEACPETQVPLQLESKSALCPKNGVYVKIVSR
Text: The platelet rich plasma (PRP) was separated. […] The inhibition of thromboxane (TX) formation was studied by determing the concentration of thromboxane […] (TXB2), the stable hydrolysis product of TXA2.

[1] = test system: spontaneously hypertensive rats of the Okamoto strain; assay: Hypotensive activity in spontaneously hypertensive rats (method of Chan and Poorvin); type: in vivo; conditions: male SHR, average MABP 160±1.5 mm of mercury; gavage, 100 mg/kg or less, second identical dose 24 hours later; MABP at 28 hours after the initial dose; number of rats in brackets
Description: The novel compounds of the present invention are also active hypotensive agents and were tested for hypotensive activity by the method of P. S. Chan and b. Poorvin, Clinical and Experimental Hypertension, 1 (6), 817-830 (1979). Male, 16 week old, spontaneously hypertensive rats of the Okamoto strain, from Taconic Farms, Germantown, New York having an average mean arterial blood pressure of 160±1.5 mm of mercury were used in the test. […] A second identical dose of the test compound, without sodium chloride loading is given 24 hours later. At 28 hours after the initial dose, the mean arterial blood pressure (MABP) is measured by the method of Chan and Poorvin vide supra. The procedure is repeated in a second and third rat when necessary. The results of this test on representative compounds of the present invention appear in Table II below.

Compound	inhibition at 100 µM (thromboxane synthetase) [%]	MABP/mm Hg (no. of rats) [1]
CC(CCn1c(=O)[nH]c2ccc(Cl)cc2c1=O)n1ccnc1 (stereo not drawn) [Example 30, 6-Chloro-3-[3-(1H-imidazol-1-yl)-butyl]-2,4(1H,3H)-quinazolinedione]	98	113(2) mm Hg
Cc1cn(CCCn2c(=O)[nH]c3ccccc3c2=O)cn1 [Example 19, 3-[3-(4-Methyl-1H-imidazol-1-yl)propyl]-2,4(1H,3H)-quinazolinedione]	98	135(3) mm Hg
CC(CCn1cnc2ccc(Cl)cc2c1=O)n1ccnc1 (stereo not drawn) [Example 140, 6-Chloro-3-[3-(1H-Imidazol-1-yl)butyl]-4(3H)-quinazolinone]	100	114(2) mm Hg
O=c1c2ccccc2nnn1CCCCn1ccnc1 [Example 75, 3-[4-(1 H-Imidazol-1-yl)butyl]-1,2,3-benzotriazin-4(3H)-one]	68	114(2) mm Hg
Cc1cn(CCCn2cnc3ccc(Cl)cc3c2=O)cn1 [Example 139, 6-Chloro-3-[3-(4-methyl-1H-imidazol-1-yl)propyl]-4(3H)-quinazolinone]	89	123(3) mm Hg
O=c1c2ccccc2nnn1CCCn1ccnc1 [3-[3-(1H-Imidazol-1-yl)propyl]-1,2,3-benzotriazin-4(3H)-one]	97	111(2) mm Hg
CC(Cn1ccnc1)Cn1c(=O)[nH]c2ccccc2c1=O (stereo not drawn) [Example 21, 3-[3-(1H-Imidazol-1-yl)-2-methylpropyl]-2,4(1H,3H)-quinazolinedione]	100	112(2) mm Hg
O=c1c2ccccc2nnn1CCCCCn1ccnc1 [Example 101, 3-[5-(1H-Imida-zol-1-yl)pentyl]-1,2,3-benzotria-zin-4(3H)-one, monohydrochloride]	67	113(2) mm Hg
CC(Cn1ccnc1)Cn1nnc2ccc([N+](=O)[O-])cc2c1=O.O (stereo not drawn) [Example 87, 3-[3-(1H-Imidazol-1-yl)-2-methyl-propyl]-6-nitro-1,2,3-benzo-triazin-4(3H)-one, hydrate]	95	114(2) mm Hg
O=c1[nH]c2ccccc2c(=O)n1CCCCn1ccnc1 [Example 11, 3-[4-(1H-Imidazol-1-yl)butyl]-2,4(1H,3H)-quinazolinedione]	100	108(2) mm Hg
Cc1ccc2nnn(CCCCn3ccnc3)c(=O)c2c1 [Example 84, 3-[4-(1H-Imidazol-1-yl)butyl]-6-methyl-1,2,3-benzotriazin-4(3H)-one]	95	106(2) mm Hg
O=c1[nH]c2ccccc2c(=O)n1CCCn1ccnc1 [Example 10, 3-[3-(1 H-Imidazol-1-yl)propyl]-2,4-(1H,3H)-quinazolinedione]	76	131(3) mm Hg
Cc1ccc2ncn(CCC(C)n3ccnc3)c(=O)c2c1 (stereo not drawn) [Example 127, 3-[3-(1H-Imidazol-1-yl)butyl]-6-methyl-4(3H)-quinazolinone]	87	133(4) mm Hg
O=c1c2cc(Cl)ccc2ncn1CCCn1ccnc1 [Example 138, 6-Chloro-[3-(1H-imidazol-1-yl)propyl]-4(3H)-quinazolinone]	75	100(2) mm Hg
O=c1c2cc(Cl)ccc2nnn1CCCCCn1ccnc1 [Example 99, 6-Chloro-3-[5-(1H-imidazol-1-yl)pentyl]-1,2,3-benzotriazin-4(3H)-one]	82	117(2) mm Hg
CC(Cn1ccnc1)Cn1c(=O)[nH]c2ccc(Cl)cc2c1=O (stereo not drawn) [Example 31, 6-Chloro-3-[3-(1H-imidazol-1-yl)-2-methylpropyl]-2,4(1H,3H)-quinazolinedione]	100	126(3) mm Hg
O=c1c2cc(Cl)ccc2nnn1CCCCCCn1ccnc1 [Example 100, 6-Chloro-3-[6-(1H-imidazol-1-yl)hexyl]-1,2,3-benzotriazin-4(3H)-one]	73	109(2) mm Hg

Compound	inhibition at 100 µM (thromboxane synthetase) [%]	MABP/mm Hg (no. of rats) [1]
CC(CCn1c(=O)[nH]c2c(Cl)cccc2c1=O)n1ccnc1 (stereo not drawn) [Example 44, 8-Chloro-3-[3-(1H-imidazol-1-yl)butyl]-2,4(1H,3H)-quinazolinedione]	71	112(2) mm Hg
O=c1[nH]c2cc(Cl)ccc2c(=O)n1CCCCn1ccnc1 [Example 40, 7-Chloro-3-[4-(1H-imidazol-1-yl)butyl]-2,4(1H,3H)-quinazolinedione]	59	102(2) mm Hg
O=c1[nH]c2c(Cl)cccc2c(=O)n1CCCCn1ccnc1 [Example 43, 8-Chloro-3-[4-(1H-imidazol-1-yl)butyl]-2,4(1H,3H)-quinazolinedione]	62	85(2) mm Hg
O=c1[nH]c2ccc(Br)cc2c(=O)n1CCCCn1ccnc1 [Example 12, 6-Bromo-3-[4-(1H-imidazol-1-yl)butyl]-2,4(1H,3H)-quinazolinedione]	98	107(2) mm Hg
O=c1c2ccccc2ncn1CCCCn1ccnc1 [Example 123, 3-[4-(1H-Imidazol-1-yl)butyl]-4(3H)-quinazolinone, dihydro-chloride]	83	117(3) mm Hg
CC(Cn1ccnc1)Cn1cnc2ccccc2c1=O.Cl.Cl (stereo not drawn) [Example 134, 3-[3-(1H-Imidazol-1-yl)-2-methylpropyl]-4(3H)-quinazolinone, dihydrochloride]	100	121(2) mm Hg
Cl.O=c1c2cc(Br)ccc2nnn1CCCCn1ccnc1 [Example 82, 6-Bromo-3-[4-(1H-imidazol-1-yl)-butyl]-1,2,3-benzotriazin-4(3H)-one, monohydrochloride]	96	115(2) mm Hg
CC(CCn1c(=O)[nH]c2ccccc2c1=O)n1ccnc1 (stereo not drawn) [Example 20, 3-[3-(1H-Imidazol-1-yl)butyl]-2,4(1H,3H)-quinazolinedione]	100	121(3) mm Hg
Cc1ccc2c(=O)n(CCCCn3ccnc3)nnc2c1C.Cl [Example 86, 3-[4-(1H-Imidazol-1-yl)butyl]-7,8-dimethyl-1,2,3-benzotriazin-4(3H)-one, monohydrochloride]	93	121(2) mm Hg
O=c1c2cc(Br)ccc2ncn1CCCCn1ccnc1 [Example 125, 6-Bromo-3-[4-(1H-imidazol-1-yl)-butyl]-4(3H)-quinazolinone, dihydro-chloride]	99	121(2) mm Hg
Cc1ccc2[nH]c(=O)n(CCC(C)n3ccnc3)c(=O)c2c1 (stereo not drawn) [Example 17, 3-[3-(1H-Imidazol-1-yl)butyl]-6-methyl-2,4(1H,3H)-quinazolinedione]	88	111(2) mm Hg
Cc1cn(CCCn2c(=O)[nH]c3ccc(Cl)cc3c2=O)cn1 [Example 26, 6-Chloro-3-[3-(4-methyl-1H-imidazol-1-yl)-propyl]-2,4(1H,3H)-quinazolinedione]	99	125(3) mm Hg
CC(Cn1ccnc1)Cn1c(=O)[nH]c2cc(Cl)ccc2c1=O (stereo not drawn) [Example 42, 7-Chloro-3-[3-(1H-imidazol-1-yl)-2-methylpropy]-2,4(1H,3H)-quinazolinedione]	75	121(2) mm Hg
O=c1c2cc(Cl)ccc2nnn1CCCCCCCCn1ccnc1 [6-Chloro-3-[8-(1H-imidazol-1-yl)octyl]-1,2,3-benzotriazin-4(3H)-one, monohydro-chloride]	90	116(2) mm Hg
O=c1c2cc(Cl)ccc2nnn1CCCn1ccnc1 [Example 76, 6-Chloro-3-[3-(1H-imidazol-1-yl)-propyl]-1,2,3-benzotriazin-4(3H)-one]	74	127(3) mm Hg
CC(CCn1c(=O)[nH]c2cc(Cl)ccc2c1=O)n1ccnc1 (stereo not drawn) [Example 41, 7-Chloro-3-[3-(1H-imidazol-1-yl)butyl]-2,4(1H,3H)-quinazolinedione]	51	128(2) mm Hg
